Consider 4 compounds from article PMC8187357 (Communications Biology, 2021).

The subject of series [1] is CT26 colon carcinoma. The series is described as follows: CT26 model, survival in combination with cyclophosphamide. Type of series: in vivo, mouse. On the set-up: key to Survival data: 0: Censored; Death or tumor volume more than 10% of body weight. Particulars: Vehicle+CTX, individual animals. The method, then: (§1) Studies in syngeneic models including B16 melanoma metastasis model and CT26 colon carcinoma subcutaneous model were performed as described. For the Docetaxel combination experiment in CT26 model, indicated dosage of docetaxel (Source: Docetere® injection by Dr Reddy’s Laboratories) was dosed intraperitoneally to animals. For the CA-170 combination groups, CA-170 (10 mg/kg/day, oral) was dosed ~10 min after docetaxel. Animal grouping, treatment efficacy assessment and %TGI calculations were performed as mentioned above. For the CT26 experiment with cyclophosphamide, 100 mg/kg of cyclophosphamide was dosed once on day 5 intraperitoneally after cell implantation (first day of dosing for all other groups). Anti-PD1 antibody (Clone J43 from BioXcel) was dosed intraperitoneally at 100 µg/animal once every week.

The target in another series is T1, PD-L1 (Mus musculus, UniProt Q9EP73).
T1 construct: purchased R&D Systems 1019-B7-100
T1 sequence (Q9EP73 with tags, fused parts or gaps limits assumed): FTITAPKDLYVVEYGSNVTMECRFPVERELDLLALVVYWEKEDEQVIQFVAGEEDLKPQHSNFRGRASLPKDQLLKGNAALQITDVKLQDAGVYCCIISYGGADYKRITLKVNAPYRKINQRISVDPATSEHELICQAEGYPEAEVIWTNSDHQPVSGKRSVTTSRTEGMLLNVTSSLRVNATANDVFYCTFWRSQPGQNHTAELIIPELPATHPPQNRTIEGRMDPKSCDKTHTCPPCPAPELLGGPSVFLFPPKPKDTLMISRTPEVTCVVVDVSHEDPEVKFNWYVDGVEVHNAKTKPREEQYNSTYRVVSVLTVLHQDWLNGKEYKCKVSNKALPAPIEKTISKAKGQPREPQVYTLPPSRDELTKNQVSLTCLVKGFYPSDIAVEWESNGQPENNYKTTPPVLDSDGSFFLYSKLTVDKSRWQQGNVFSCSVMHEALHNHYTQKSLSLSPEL
Kind of series: Rescue of PD-L1 mediated inhibition of proliferation, mouse splenocytes. Format: cell-based. Particulars: splenocyte-based assay. On the procedure:
The ability of peptides, peptidomimetics, and small molecules were analyzed for their ability to rescue T-cell proliferation or IFN-γ release from the inhibitory activity of PD-L1 or PD-L2 in a splenocyte/PBMC-based functional assay as per the protocols reported in publication. […] For all in vitro assays, test agent stock was prepared in water and diluted further in the assay media to achieve test concentrations. Each experimental condition was carried out in triplicates. Percent rescue for a given test compound concentration was calculated by normalizing individual percent test agent proliferation or IFN-γ release values to percent anti-CD3 and anti-CD28 antibodies stimulated proliferation or IFN-γ release. EC50 values were derived by plotting transformed data into non-linear fit in sigmoidal dose–response curve using GraphPad Prism software (Version 7).

Another series can be described thus: Pharmacokinetics in mice. The conditions noted are these: mouse, in vivo. Format: in vivo, mouse. On the procedure: Animals in Group 1 were administered with 5% w/v dextrose in water and Group 2 were administered with corresponding formulation listed in the Supplementary Table 6 through oral routes. Blood samples (approximately 40 μl) were collected under light isoflurane anesthesia from submandibular at predose, 0.08 (IV), 0.25, 0.5, 1, 2, 4, 8, and 24 h using sparse sampling technique. Plasma samples were separated by centrifugation of whole blood and stored below −70 °C until bioanalysis. All samples were processed for analysis by protein precipitation and analyzed with fit-for-purpose LC–MS/MS method.

The subject of series [2] is CT26 colon carcinoma. The series is described as follows: CT26 model, combination with docetaxel. Type of series: in vivo, mouse. Particulars: for TGI: CT26 in Balb/c mice, 12 days; for Individual tumor volumes: individual animals. On the procedure: as §1

“And” between values parts separate entries of the source, which are not always exact repeats. Equal entries are not always repeated. Residues, ends and D or L forms follow the SMILES beside them.

As for `O=P1(N(CCCl)CCCl)NCCCO1` (stereo not shown) [CTX], the Survival data with CT26 colon carcinoma [1] (day 1 of treatment) was 0; with CT26 colon carcinoma [1] (day 3 of treatment), 0; in the series with CT26 colon carcinoma [1] (day 6 of treatment), 0; with CT26 colon carcinoma [1] (day 8 of treatment) it was 0; in the series on CT26 colon carcinoma [1] (day 10 of treatment) it was 0; in the series with CT26 colon carcinoma [1] (day 12 of treatment) it was 1 and 0. The Survival data with CT26 colon carcinoma [1] (day 14 of treatment) was 1 and 0; in the series on CT26 colon carcinoma [1] (day 15 of treatment), 0.
At PD-L1, `C[C@@H](O)[C@H](NC(=O)[C@H](CC(N)=O)NC(=O)[C@@H](N)CO)C(=O)O` [PM-116] (H-Ser-Asn-Thr-OH; N-terminus and C-terminus assumed) had an EC50 of 6 nM.
As for `C[C@@H](O)[C@@H]1NC(=O)[C@H](CC(N)=O)NC(=O)[C@H](CO)NC(=O)[C@H](Cc2ccccc2)NC(=O)[C@H](CO)NC(=O)[C@H](CCC(=O)O)NC(=O)[C@H](CO)NC1=O` [PM-823] (HELM PEPTIDE1{E.S.F.S.N.T.S}$PEPTIDE1,PEPTIDE1,1:R1-7:R2$$$V2.0), in the series “Pharmacokinetics in mice” (iv, 1 mg/kg), the AUC came to 2180 ng·h/mL and the clearance is 22.9 mL/min/kg. In the series “Pharmacokinetics in mice” (po), the bioavailability was 6.8% and the “oral bioavailability (in words)” value is on record as “not orally bioavailable”. In “Pharmacokinetics in mice” (po, 30 mg/kg), this compound showed an AUC of 495 ng·h/mL and a Cmax of 554 ng/mL. Also, a half-maximal effect at PD-L1 (EC50) was put at 55 nM.
On to `CC(=O)O[C@@]12CO[C@@H]1C[C@H](O)[C@@]1(C)C(=O)[C@H](O)C3=C(C)[C@@H](OC(=O)[C@H](O)[C@@H](NC(=O)OC(C)(C)C)c4ccccc4)C[C@@](O)([C@@H](OC(=O)c4ccccc4)[C@H]21)C3(C)C` [docetaxel], for which the TGI turned out to be 44% with CT26 colon carcinoma [2] (single agent docetaxel 1 mg/kg) and 43% in the series with CT26 colon carcinoma [2] (single agent docetaxel 10 mg/kg). Besides, the Individual tumor volumes with CT26 colon carcinoma [2] (Docetaxel 1mg/kg, day 1 of treatment) was 22.15 mm3 and 31.55 mm3 and 34.9 mm3 and 45.07 mm3 and 50.49 mm3 and 58.82 mm3 and 62.62 mm3 and 76.97 mm3 and 88.69 mm3; in the series on CT26 colon carcinoma [2] (Docetaxel 1mg/kg, day 4 of treatment), 46.4 mm3 and 28.72 mm3 and 78.5 mm3 and 62.65 mm3 and 97.03 mm3 and 124.03 mm3 and 118.17 mm3 and 67.74 mm3 and 149.61 mm3; in the series with CT26 colon carcinoma [2] (Docetaxel 1mg/kg, day 6 of treatment), 132.42 mm3 and 19.09 mm3 and 90.17 mm3 and 95.74 mm3 and 164.49 mm3 and 224.32 mm3 and 158.95 mm3 and 86.49 mm3 and 198.71 mm3; in the series with CT26 colon carcinoma [2] (Docetaxel 1mg/kg, day 8 of treatment), 186.57 mm3 and 10.93 mm3 and 133.19 mm3 and 151.25 mm3 and 260.04 mm3 and 385.2 mm3 and 276.47 mm3 and 199.1 mm3 and 392.38 mm3; in the series with CT26 colon carcinoma [2] (Docetaxel 1mg/kg, day 11 of treatment), 263.17 mm3 and 22.61 mm3 and 143.19 mm3 and 316.97 mm3 and 451.22 mm3 and 764.37 mm3 and 562.88 mm3 and 301.78 mm3 and 690.4 mm3; in the series on CT26 colon carcinoma [2] (Docetaxel 10mg/kg, day 1 of treatment) it was 22.87 mm3 and 29.49 mm3 and 35.8 mm3 and 43.1 mm3 and 51.4 mm3 and 57.21 mm3 and 63.02 mm3 and 74.99 mm3 and 92.42 mm3. Also, the Individual tumor volumes was 54.41 mm3 and 32.56 mm3 and 76.21 mm3 and 71.86 mm3 and 73.1 mm3 and 87.77 mm3 and 117.98 mm3 and 93.45 mm3 and 48.5 mm3 in the series on CT26 colon carcinoma [2] (Docetaxel 10mg/kg, day 4 of treatment); 109.48 mm3 and 42.16 mm3 and 129.37 mm3 and 103.08 mm3 and 111.56 mm3 and 155.23 mm3 and 165.2 mm3 and 163.17 mm3 and 79.31 mm3 in the series with CT26 colon carcinoma [2] (Docetaxel 10mg/kg, day 6 of treatment); 163.72 mm3 and 98.83 mm3 and 244.12 mm3 and 203.26 mm3 and 199.06 mm3 and 316.02 mm3 and 316.69 mm3 and 217.54 mm3 and 105.3 mm3 in the series with CT26 colon carcinoma [2] (Docetaxel 10mg/kg, day 8 of treatment); 322.31 mm3 and 251.42 mm3 and 447.21 mm3 and 378.85 mm3 and 332.62 mm3 and 662.99 mm3 and 641.53 mm3 and 377.51 mm3 and 200.96 mm3 in the series on CT26 colon carcinoma [2] (Docetaxel 10mg/kg, day 11 of treatment).

What is called EC50 is the midpoint of the concentration-response curve. As usually defined, the AUC is the area under the concentration-time curve, a measure of exposure. As a reminder, the clearance is the volume of plasma or blood freed of the substance per unit of time. In general, bioavailability refers to the share of a dose that reaches the circulation, judged against a reference dose that is usually intravenous. The Cmax is the maximum level reached in the sampled fluid or tissue.
